Measured values taken from publication PMC6020689 (Angewandte Chemie (International ed. in English), 2018).

Biological target: EtCYP112 (Erwinia tracheiphila, UniProt A0A0M2KIP9)
Experiment: GC-MS product analysis, reconstituted system
Assay type: biochemical
Conditions: spinach Fd, EtFdR

| Structure (SMILES) | GC-MS product analysis, reconstituted system (NADPH in excess) | GC-MS product analysis, reconstituted system (NADPH) |
| --- | --- | --- |
| C=C1C[C@]23C[C@H]1CC[C@H]2[C@]1(C)CCC[C@@](C)(C(=O)O)[C@H]1[C@@H]3C(=O)O [GA12] | reconstituted system with purified ferredoxin reductase from E. tracheiphila (EtFdR) and spinach ferredoxin (Fd), converting GA12 |  |
| C=C1C[C@]23C[C@H]1CC[C@H]2[C@]1(C=O)CCC[C@@](C)(C(=O)O)[C@H]1[C@@H]3C(=O)O [GA24] |  | while GA15 and GA24 were readily converted to GA9, GA25 is not |
